Data from US20250344697A1, “ENANTIOMERICALLY ENRICHED […] THE CONTROL OF RESISTANT PHYTOPATHOGENIC FUNGI” (SYNGENTA CROP PROTECTION AG, priority 2022, published 2025).

How the values were obtained:
Experiment in all cases: in vitro antifungal test, Z. tritici spore suspension in PDB
Type in all cases: cell-based
[1] = system: K9032 Zymoseptoria tritici CYP51 L50S D134G V136A I381V Y461H S524T; settings: for M = (EC50 (enantiomer)/EC50 (racemate)) − 0.5: (−)-enantiomer vs racemate; for EC50 (ppm): growth at 3 days post exposure, average of two replicates
Description: (§1) A panel of 16 Zymoseptoria tritici isolates was subjected to in vitro antifungal tests. Spore suspensions of Z. tritici isolates were prepared in potato dextrose broth (PDB) and exposed to defined concentration ranges of the inhibitors (20ppm starting concentration, dilution steps of 3). A sensitive wild-type isolate was used together with a panel of strains containing variants of the Z. tritici CYP51 gene conferring resistance to DMI fungicides. The DMI-resistant isolates were isolated from wheat in the UK, Ireland, Germany and Russia in 2020. Determination of CYP51 gene variants was achieved using targeted gene sequencing. The half maximal effective concentration (EC50) of the inhibitors were calculated based on growth responses of Z. tritici at 3 days post exposure to the different concentrations of the […] using a linear regression. The Tables A and B show an average of EC50 values in ppm from two replicates, as well as M=(EC50 (enantiomer)/EC50 (racemate))−0.5.

[2] = system: K9020 Zymoseptoria tritici CYP51 L50S V136A I381V Y461S S524T; settings: isolate K9020; for M = (EC50 (enantiomer)/EC50 (racemate)) − 0.5: (−)-enantiomer vs racemate, below 0 = enantiomer outperforms racemate; for EC50 (ppm): growth at 3 days post exposure, average of two replicates
Description: as §1

[3] = system: K5544 Zymoseptoria tritici (WT); settings: isolate K5544 (WT); for M = (EC50 (enantiomer)/EC50 (racemate)) − 0.5: (−)-enantiomer vs racemate, below 0 = enantiomer outperforms racemate; for EC50 (ppm): growth at 3 days post exposure, average of two replicates
Description: as §1

[4] = system: K9021 Zymoseptoria tritici CYP51 L50S V136A I381V Y461S S524T; settings: isolate K9021; for M = (EC50 (enantiomer)/EC50 (racemate)) − 0.5: (−)-enantiomer vs racemate, below 0 = enantiomer outperforms racemate; for EC50 (ppm): growth at 3 days post exposure, average of two replicates
Description: as §1

[5] = system: K9026 Zymoseptoria tritici CYP51 L50S S188N A379G I381V YG459 N513K; settings: for M = (EC50 (enantiomer)/EC50 (racemate)) − 0.5: (−)-enantiomer vs racemate; for EC50 (ppm): growth at 3 days post exposure, average of two replicates
Description: as §1

[6] = system: K9023 Zymoseptoria tritici CYP51 L50S V136C S188N A379G I381V YG459 S524T; settings: for M = (EC50 (enantiomer)/EC50 (racemate)) − 0.5: (−)-enantiomer vs racemate; for EC50 (ppm): growth at 3 days post exposure, average of two replicates
Description: as §1

[7] = system: K9029 Zymoseptoria tritici CYP51 L50S I381V YG459 N513K; settings: for M = (EC50 (enantiomer)/EC50 (racemate)) − 0.5: (−)-enantiomer vs racemate; for EC50 (ppm): growth at 3 days post exposure, average of two replicates; for effectiveness compared with the racemate (in words): isolate K9029, summary of Tables A and B
Description: as §1

[8] = system: K9022 Zymoseptoria tritici CYP51 L50S V136A I381V Y461S S524T; settings: isolate K9022; for M = (EC50 (enantiomer)/EC50 (racemate)) − 0.5: (−)-enantiomer vs racemate, below 0 = enantiomer outperforms racemate; for EC50 (ppm): growth at 3 days post exposure, average of two replicates
Description: as §1

Structure (SMILES) | M = (EC50 (enantiomer)/EC50 (racemate)) − 0.5 ([1]; isolate K9032, 1st listed row) | EC50 (ppm) ([1]; isolate K9032, 1st listed row) | M = (EC50 (enantiomer)/EC50 (racemate)) − 0.5 ([1]; isolate K9032, 2nd listed row) | EC50 (ppm) ([1]; isolate K9032, 2nd listed row) | M = (EC50 (enantiomer)/EC50 (racemate)) − 0.5 ([1]; isolate K9032, 3rd listed row) | EC50 (ppm) ([1]; isolate K9032, 3rd listed row) | M = (EC50 (enantiomer)/EC50 (racemate)) − 0.5 [2] | EC50 (ppm) [2] | EC50 (ppm) [3] | EC50 (ppm) [4] | EC50 (ppm) ([5]; isolate K9026, 1st listed row) | EC50 (ppm) ([5]; isolate K9026, 2nd listed row) | EC50 (ppm) ([5]; isolate K9026, 3rd listed row) | EC50 (ppm) ([6]; isolate K9023, 2nd listed row) | EC50 (ppm) ([6]; isolate K9023, 3rd listed row) | EC50 (ppm) ([6]; isolate K9023) | EC50 (ppm) ([7]; isolate K9029, 1st listed row) | EC50 (ppm) ([7]; isolate K9029, 2nd listed row) | EC50 (ppm) ([7]; isolate K9029, 3rd listed row) | EC50 (ppm) [8] | other results
COC(=O)C(O)(Cn1cncn1)c1ccc(Oc2ccc(Cl)cc2)cc1Cl (single isomer, unassigned; (-)) [(−)-enantiomer of Compound I-1, (−)-Methyl 2-[2-chloro-4-(4-chlorophenoxy)phenyl]-2-hydroxy-3-(1,2,4-triazol-1-yl)propanoate] | 0.00 | 0.1 ppm | 0.10 | 0.06 ppm | 0.10 | 0.06 ppm | −0.17 | 0.01 ppm | 0.02 ppm | 0.04 ppm | 4 ppm | 0.05 ppm | 0.05 ppm | 0.1 ppm | 0.2 ppm | 0.3 ppm | 0.3 ppm | 0.8 ppm | 3 ppm | 0.3 ppm | effectiveness compared with the racemate (in words) ([2]; summary of Tables A and B): more effective; M = (EC50 (enantiomer)/EC50 (racemate)) − 0.5 [3]: 0.17; M = (EC50 (enantiomer)/EC50 (racemate)) − 0.5 [4]: −0.06; M = (EC50 (enantiomer)/EC50 (racemate)) − 0.5 ([5]; isolate K9026, 1st listed row): −0.10; M = (EC50 (enantiomer)/EC50 (racemate)) − 0.5 ([5]; isolate K9026, 2nd listed row): 0.00; M = (EC50 (enantiomer)/EC50 (racemate)) − 0.5 ([5]; isolate K9026, 3rd listed row): 0.00; effectiveness compared with the racemate (in words) ([5]; isolate K9026, summary of Tables A and B): more effective; M = (EC50 (enantiomer)/EC50 (racemate)) − 0.5 ([6]; isolate K9023, 2nd listed row): 0.00; M = (EC50 (enantiomer)/EC50 (racemate)) − 0.5 ([6]; isolate K9023, 3rd listed row): 0.00; M = (EC50 (enantiomer)/EC50 (racemate)) − 0.5 ([6]; isolate K9023): 0.10; M = (EC50 (enantiomer)/EC50 (racemate)) − 0.5 ([7]; isolate K9029, 1st listed row): −0.13; M = (EC50 (enantiomer)/EC50 (racemate)) − 0.5 ([7]; isolate K9029, 2nd listed row): −0.23; M = (EC50 (enantiomer)/EC50 (racemate)) − 0.5 ([7]; isolate K9029, 3rd listed row): −0.20; effectiveness compared with the racemate (in words) [7]: more effective; M = (EC50 (enantiomer)/EC50 (racemate)) − 0.5 [8]: 0.00
COC(=O)C(O)(Cn1cncn1)c1ccc(Oc2ccc(Cl)cc2)cc1C(F)(F)F (racemic) [Racemate Compound I-2] |  | 0.2 ppm |  | 0.1 ppm |  | 0.1 ppm |  | 0.03 ppm | 0.03 ppm | 0.09 ppm | 6 ppm | 0.07 ppm | 0.07 ppm | 0.1 ppm | 0.3 ppm | 0.3 ppm | 0.8 ppm | 3 ppm | 10 ppm | 0.7 ppm | 
COC(=O)C(O)(Cn1cncn1)c1ccc(Oc2ccc(Cl)cc2)cc1Cl (single isomer, unassigned; (+)) [(+)-enantiomer of Compound I-1, (+)Methyl 2-[2-chloro-4-(4-chlorophenoxy)phenyl]-2-hydroxy-3-(1,2,4-triazol-1-yl)propanoate] |  | 12 ppm |  | 7 ppm |  | 8 ppm |  | 2 ppm | 1 ppm | 5 ppm | 20 ppm | 5 ppm | 3 ppm | 9 ppm | 19 ppm | 20 ppm | 20 ppm | 20 ppm | 20 ppm | 20 ppm | 
COC(=O)C(O)(Cn1cncn1)c1ccc(Oc2ccc(Cl)cc2)cc1C(F)(F)F (single isomer, unassigned; (+)) [(+)-enantiomer of Compound I-2] |  | 7 ppm |  | 4 ppm |  | 4 ppm |  | 1 ppm | 0.5 ppm | 3 ppm | >20 ppm | 3 ppm | 2 ppm | 6 ppm | 9 ppm | 9 ppm | >20 ppm | >20 ppm | >20 ppm | >20 ppm | 
COC(=O)C(O)(Cn1cncn1)c1ccc(Oc2ccc(Cl)cc2)cc1Cl (racemic) [Racemate Compound I-1] |  | 0.2 ppm |  | 0.1 ppm |  | 0.1 ppm |  | 0.03 ppm | 0.03 ppm | 0.09 ppm | 10 ppm | 0.1 ppm | 0.1 ppm | 0.2 ppm | 0.4 ppm | 0.5 ppm | 0.8 ppm | 3 ppm | 10 ppm | 0.6 ppm | 
COC(=O)C(O)(Cn1cncn1)c1ccc(Oc2ccc(Cl)cc2)cc1C(F)(F)F (single isomer, unassigned; (-)) [(−)-enantiomer of Compound I-2, (−)-Methyl 2-[4-(4-chlorophenoxy)-2-(trifluoromethyl)phenyl]-2-hydroxy-3-(1,2,4-triazol-1-yl)propanoate] | 0.00 | 0.1 ppm | 0.20 | 0.07 ppm | 0.30 | 0.08 ppm | 0.17 | 0.02 ppm | 0.03 ppm | 0.05 ppm | 3 ppm | 0.05 ppm | 0.04 ppm | 0.1 ppm | 0.2 ppm | 0.3 ppm | 0.5 ppm | 1 ppm | 5 ppm | 0.4 ppm | M = (EC50 (enantiomer)/EC50 (racemate)) − 0.5 [3]: 0.50; M = (EC50 (enantiomer)/EC50 (racemate)) − 0.5 [4]: 0.06; M = (EC50 (enantiomer)/EC50 (racemate)) − 0.5 ([5]; isolate K9026, 1st listed row): 0.00; M = (EC50 (enantiomer)/EC50 (racemate)) − 0.5 ([5]; isolate K9026, 2nd listed row): 0.21; M = (EC50 (enantiomer)/EC50 (racemate)) − 0.5 ([5]; isolate K9026, 3rd listed row): 0.07; M = (EC50 (enantiomer)/EC50 (racemate)) − 0.5 ([6]; isolate K9023, 2nd listed row): 0.50; M = (EC50 (enantiomer)/EC50 (racemate)) − 0.5 ([6]; isolate K9023, 3rd listed row): 0.17; M = (EC50 (enantiomer)/EC50 (racemate)) − 0.5 ([6]; isolate K9023): 0.50; M = (EC50 (enantiomer)/EC50 (racemate)) − 0.5 ([7]; isolate K9029, 1st listed row): 0.13; M = (EC50 (enantiomer)/EC50 (racemate)) − 0.5 ([7]; isolate K9029, 2nd listed row): −0.17; M = (EC50 (enantiomer)/EC50 (racemate)) − 0.5 ([7]; isolate K9029, 3rd listed row): 0.00; effectiveness compared with the racemate (in words) [7]: more effective; M = (EC50 (enantiomer)/EC50 (racemate)) − 0.5 [8]: 0.07
